{
  "source": "patent US9296831B2",
  "about": "“Herbal extract composition for the treatment of diabetes and a method of extracting the same” (priority 2014, dated 2016)",
  "key": {"Wistar rats": {"tested_on": "Wistar rats", "assay": "Post prandial blood sugar (BS) levels in STZ-induced diabetic rats", "type": "in vivo, rat", "conditions": "oligosaccharide 16 mg/kg, metformin 15 mg/kg/day", "description": "According to one embodiment herein, the oligosaccharide is administered to rats after purification and structural analysis of the oligosaccharide. The eight week old Wistar rats, weighing from 200-250 gm are purchased from Pasteur institute (Tehran, Iran). The animals are kept on a standard diet with free access to water and food throughout the study. All treatments and maintenance of the animals are carried out in accordance with the principles of laboratory animal care. Further diabetes is induced in the animals except the controls by a single intraperitoneal injection of STZ (60 mg/kg) freshly dissolved in citrate buffer of 5 mmol/L and a pH of 4.5. After an elapse of 48 hrs since the injection of streptozocin (STZ), the diabetes is confirmed by measuring the glucose levels in the blood samples. The blood samples are obtained from the retro-orbital sinus of the animals under diethyl ether-induced light anesthesia with GlucoDr Glucometer (Allmedicus; Germany). […] The first group comprises ten rats and is administered with the oligosaccharide. The second group comprises eight rats and the rats in the second group are injected with the citrate buffer. This group is called a negative control group. The amount of citrate buffer administered to the second group and the amount of oligosaccharide administered to the first group are same or equal. The rats in the oligosaccharide treated groups are given different doses (8-40 mg/kg) of the pure materials dissolved in distilled water twice daily for 21 days starting from the third day since the STZ injection. […] The molecules of glybenclamide or metformin are administered intraperitoneally or by oral gavage and stopped after three weeks. The water intake and urine volume are measured throughout the study. Twenty four hours after the administration of the last dose of oligosaccharide, the blood glucose is monitored in fasting and non-fasting states. The body and pancreas weights are compared. Oral glucose tolerance test, insulin tolerance test, gluconeogenesis inhibition test and alfa glucosidase inhibition tests are conducted. […] The untreated negative controls received no molecule, while the test group received oligosaccharide and the positive control received either metformin or glybenclamide. FIG. 2 illustrates a flow chart indicating the administration and testing of the anti-diabetic effect of oligosaccharide molecule, according to an embodiment herein. The process of administering and testing the antidiabetic effect of oligosaccharide molecule comprises purchasing eight week old male Wistar rats weighing 200-250 gm (201). The rats are purchased from Pasteus Institute (Tehran, Iran). The rats are kept on a standard diet with free access to water and food throughout the study. All the treatments and maintenance of the animals is carried out in accordance with the principles of laboratory animal care. Inducing diabetes by stretozotocin (STZ) 60 mg/kg injection (202). The diabetes is induced in all rats except in the rats in the control group by intraperitoneal injection of STZ freshly dissolved in 5 mmol/L citrate buffer (pH 4.5). The diabetes is confirmed 48 hrs after STZ infection by measuring blood glucose levels (203). The blood from rats is obtained from retro-orbital sinus of the animals under diethyl ether induced light anesthesia with GlucoDr Glucometer (Allmedicus; Germany). […] The rats in positive control, negative control and oligosaccharide treated group are divided into different groups (204). The rats in the negative control group are injected with citrate buffer for three weeks (205). The rats in the positive control group are injected with glybendamide and metformin for three weeks (206). The rats in the oligosaccharide group are injected with different concentration (8-40 mg/kg) of oligosaccharide for three weeks (207). The oligosaccharide is dissolved in distilled water and administered twice daily after STZ injection induced diabetes. […]"}, "rats [1]": {"tested_on": "rats", "assay": "Sub acute toxicity test, biochemistry, 15 days", "type": "in vivo", "description": "(§1) According to one embodiment herein, the acute, sub acute and sub chronic toxicological tests are performed based on the standard protocols. For the acute sequential design procedure of LD-50, limit dose test were done and mortality rate is recorded up to 14 days. […] For the animals in the control groups, distilled water is administered by the same protocols. At the end of the time period, the rats are killed and the body specimens are collected for the determination of biochemical, hematological and pathological parameters."}, "rats [2]": {"tested_on": "rats", "assay": "Sub acute toxicity test, hematology, 15 days", "type": "in vivo", "description": "as §1"}, "rats [3]": {"tested_on": "rats", "conditions": "rat, in vivo", "description": "According to one embodiment herein, the acute, sub acute and sub chronic toxicological tests are performed based on the standard protocols. For the acute sequential design procedure of LD-50, limit dose test were done and mortality rate is recorded up to 14 days. Sub acute and sub chronic toxicological tests are performed by an administration of 160 mg/kg (10 folds of therapeutics dose) for 21 and 52 days respectively. For the animals in the control groups, distilled water is administered by the same protocols. At the end of the time period, the rats are killed and the body specimens are collected for the determination of biochemical, hematological and pathological parameters."}, "[4]": {"conditions": "21 days after treatment, glybenclamide 5 mg/kg/day"}, "[5]": {"conditions": "30 days after withdrawal of the treatment, glybenclamide 5 mg/kg/day"}, "[6]": {"conditions": "before treatment (baseline), glybenclamide 5 mg/kg/day groups"}},
  "data": [
    {"smiles": "COc1ccc(Cl)cc1C(=O)NCCc1ccc(S(=O)(=O)NC(=O)NC2CCCCC2)cc1", "note": "[Glybenclamide, glybenclamide]", "values": [
      {"measurement": "BS levels mg/dl (SD), post prandial", "setting": "Wistar rats; [4]", "value": "250(63) mg/dl"},
      {"measurement": "BS levels mg/dl (SD), post prandial", "setting": "Wistar rats; [5]", "value": "363(64) mg/dl"},
      {"measurement": "BS levels mg/dl (SD), post prandial", "setting": "Wistar rats; [6]", "value": "360(41) mg/dl"}
    ]},
    {"smiles": "COC(=O)C1OC(O)C(O)C(O)C1OC1OC(C(=O)OC)C(OC2OC(C(=O)OC)C(OC3OC(C(=O)O)C(O)C(O)C3O)C(O)C2OC(C)=O)C(O)C1O", "note": "(centres unmarked) [Oligosaccharide]", "values": [
      {"measurement": "ALP", "setting": "rats [1]; 16 mg/kg", "value": "442.69 ± 90.54", "unit": "u/l"},
      {"measurement": "ALT", "setting": "rats [1]; 16 mg/kg", "value": "146.33 ± 18.41", "unit": "u/l"},
      {"measurement": "AST", "setting": "rats [1]; 16 mg/kg", "value": "169.41 ± 17.5", "unit": "u/l"},
      {"measurement": "Alb", "setting": "rats [1]; 16 mg/kg", "value": "3.22 ± 0.04", "unit": "g/dL"},
      {"measurement": "CPK", "setting": "rats [1]; 16 mg/kg", "value": "1341.5 ± 311.12", "unit": "u/l"},
      {"measurement": "Chol", "setting": "rats [1]; 16 mg/kg", "value": "82.15 ± 22.11", "unit": "mg/dL"},
      {"measurement": "Cr", "setting": "rats [1]; 16 mg/kg", "value": "0.66 ± 0.02", "unit": "mg/dL"},
      {"measurement": "Glucose", "setting": "rats [1]; 16 mg/kg", "value": "113.61 ± 16.4", "unit": "mg/dL"},
      {"measurement": "LDH", "setting": "rats [1]; 16 mg/kg", "value": "2019.7 ± 390.4", "unit": "u/l"},
      {"measurement": "TG", "setting": "rats [1]; 16 mg/kg", "value": "98.41 ± 15.63", "unit": "mg/dL"},
      {"measurement": "Urea", "setting": "rats [1]; 16 mg/kg", "value": "54.71 ± 9.98", "unit": "mg/dL"},
      {"measurement": "Uric acid", "setting": "rats [1]; 16 mg/kg", "value": "1.62 ± 0.32", "unit": "mg/dL"},
      {"measurement": "ALP", "setting": "rats [1]; 160 mg/kg", "value": "351.37 ± 63.21", "unit": "u/l"},
      {"measurement": "ALT", "setting": "rats [1]; 160 mg/kg", "value": "142.31 ± 21.32", "unit": "u/l"},
      {"measurement": "AST", "setting": "rats [1]; 160 mg/kg", "value": "177.51 ± 24.2", "unit": "u/l"},
      {"measurement": "Alb", "setting": "rats [1]; 160 mg/kg", "value": "3.24 ± 0.05", "unit": "g/dL"},
      {"measurement": "CPK", "setting": "rats [1]; 160 mg/kg", "value": "1398.3 ± 115.5", "unit": "u/l"},
      {"measurement": "Chol", "setting": "rats [1]; 160 mg/kg", "value": "81.11 ± 14.31", "unit": "mg/dL"},
      {"measurement": "Cr", "setting": "rats [1]; 160 mg/kg", "value": "0.65 ± 0.04", "unit": "mg/dL"},
      {"measurement": "Glucose", "setting": "rats [1]; 160 mg/kg", "value": "109.3 ± 10.4", "unit": "mg/dL"},
      {"measurement": "LDH", "setting": "rats [1]; 160 mg/kg", "value": "2110.5 ± 504.7", "unit": "u/l"},
      {"measurement": "TG", "setting": "rats [1]; 160 mg/kg", "value": "97.99 ± 17.49", "unit": "mg/dL"},
      {"measurement": "Urea", "setting": "rats [1]; 160 mg/kg", "value": "54.87 ± 6.63", "unit": "mg/dL"},
      {"measurement": "Uric acid", "setting": "rats [1]; 160 mg/kg", "value": "1.58 ± 0.25", "unit": "mg/dL"},
      {"measurement": "HCT", "setting": "rats [2]; 16 mg/kg", "value": "42.8 ± 2.9", "unit": "%"},
      {"measurement": "Hb", "setting": "rats [2]; 16 mg/kg", "value": "14.3 ± 0.6", "unit": "g/dL"},
      {"measurement": "MCH", "setting": "rats [2]; 16 mg/kg", "value": "18.1 ± 4.9", "unit": "pg"},
      {"measurement": "MCHC", "setting": "rats [2]; 16 mg/kg", "value": "33.8 ± 4.7", "unit": "g/dL"},
      {"measurement": "MCV", "setting": "rats [2]; 16 mg/kg", "value": "54.51 ± 3.2", "unit": "fL"},
      {"measurement": "PLT", "setting": "rats [2]; 16 mg/kg", "value": "9.4 ± 1.3 ×105/ml"},
      {"measurement": "RBC", "setting": "rats [2]; 16 mg/kg", "value": "8.08 ± 1.3 ×106/ml"},
      {"measurement": "WBC", "setting": "rats [2]; 16 mg/kg", "value": "10.5 ± 3.3 ×103/ml"},
      {"measurement": "HCT", "setting": "rats [2]; 160 mg/kg", "value": "42.6 ± 1.1", "unit": "%"},
      {"measurement": "Hb", "setting": "rats [2]; 160 mg/kg", "value": "14.1 ± 0.3", "unit": "g/dL"},
      {"measurement": "MCH", "setting": "rats [2]; 160 mg/kg", "value": "18.3 ± 3.9", "unit": "pg"},
      {"measurement": "MCHC", "setting": "rats [2]; 160 mg/kg", "value": "33.9 ± 5.1", "unit": "g/dL"},
      {"measurement": "MCV", "setting": "rats [2]; 160 mg/kg", "value": "55.9 ± 2.5", "unit": "fL"},
      {"measurement": "PLT", "setting": "rats [2]; 160 mg/kg", "value": "9.3 ± 2.1 ×105/ml"},
      {"measurement": "RBC", "setting": "rats [2]; 160 mg/kg", "value": "7.98 ± 1.9 ×106/ml"},
      {"measurement": "WBC", "setting": "rats [2]; 160 mg/kg", "value": "8.9 ± 2.9 ×103/ml"},
      {"measurement": "BS levels mg/dl (SD), post prandial", "setting": "Wistar rats; [4]", "value": "150(21) mg/dl"},
      {"measurement": "BS levels mg/dl (SD), post prandial", "setting": "Wistar rats; [5]", "value": "144(18) mg/dl"},
      {"measurement": "BS levels mg/dl (SD), post prandial", "setting": "Wistar rats; [6]", "value": "364(41) mg/dl"},
      {"measurement": "abnormality in pathologic studies", "setting": "rats [3]", "value": "no abnormality is observed"}
    ]},
    {"smiles": "CN(C)C(=N)N=C(N)N", "note": "[Metformin, metformin]", "values": [
      {"measurement": "BS levels mg/dl (SD), post prandial", "setting": "Wistar rats; [4]", "value": "261(49) mg/dl"},
      {"measurement": "BS levels mg/dl (SD), post prandial", "setting": "Wistar rats; [5]", "value": "375(59) mg/dl"},
      {"measurement": "BS levels mg/dl (SD), post prandial", "setting": "Wistar rats; [6]", "value": "375(57)(20) mg/dl"}
    ]}
  ]
}
